Experiments:
RhoA = RhoA (Homo sapiens, UniProt P61586); conditions: cited from earlier work
D1 cells = assay: NK92 cell-induced optical signal of D1 cells (Epic RWG biosensor), modulation by pharmacological agents; assay type: cell-based, mouse; conditions: D1 cells pretreated with agent for 1 hour before NK cells; killer:target ratio 1; 28° C.
Method: The impact of six pharmacological agents was examined on the NK92 cell-induced optical signal of D1 cells. […] Brefeldin A (BFA), and Camptothecin are defined above. Kp7-6 is an exocyclic cystine-knot peptide that specifically antagonizes Fas/FasL-mediated cellular apoptotic signals, for example, it can reduce 58% of FasL-induced apoptosis in Jurkat cells at 1 mg/mL. Latrunculin inhibits actin polymerization in vitro and disrupts microfilament organization as well as microfilament-mediated processes. […] Wortmannin is a potent, selective, cell-permeable and irreversible inhibitor of phosphatidylinositol 3-kinase.
Cell culture—Natural killer cells-NK92MI and the multipotent mouse bone marrow D1 cell line were from American Type Culture Collection (Manassas, Va.). NK92MI cells were grown in RPMI medium plus 12.5% horse serum and 12.5 fetal bovine serum (FBS) and antibiotics. D1 cells were grown in Dulbecco's Modified Eagle's Medium supplemented with 10% fetal bovine serum (FBS) and antibiotics. Approximately 1×10^4 to 2×10^4 target cells of D1 in 50 μL medium were placed in each well of Epic® 384-well microplate. After cell seeding, the cells were cultured at 37° C. under air/5% CO2 until a high degree, e.g., 90% of confluence was reached (about 24 hrs). Cells were continuously cultured overnight in their corresponding media without any serum to keep cells at a quiescent state and cell confluence was over about 95%.
Epic® system and DMR assays—Epic® beta system was used during this study. For cell-cell interaction study, target cell density was at about 95-100% confluence and the cells were finally maintained with the appropriate medium as described above. Cell number of NK92MI was counted with Beckman Coulter Particle Counter. Unless stated otherwise, a ratio of 1 between killer cells and target cells was used. NK92MI cells were suspended in RPMI plus 2% FBS. A 20 μL aliquot of NK92MI solution was added to each well of a normal 384-well microplate (Corning Inc., Corning, N.Y.). The plates of the target cells and the natural killer cells were incubated in the Epic® instrument for at least 30 minutes to reach 28° C. For pharmacological agent studies, the D1 cells were pretreated with the agents for 1 hour before NK cells were introduced. All studies were carried out at 28° C. for consistency and having the lid of the microplate continuously on except for a short period of time (e.g., about seconds) when the solution was introduced to minimize the effect of temperature fluctuation and evaporative cooling.

CHO-ICAM1 cells = assay: NK92 cell-induced N-DMR signal of CHO-ICAM1 cells (Epic RWG biosensor), modulation by pharmacological agents; assay type: cell-based, Chinese hamster; conditions: CHO-ICAM1 cells pretreated with agent for 1 hour before NK cells; killer:target ratio 1; 28° C.
Excerpt: The impacts of four pharmacological agents were examined on the NK92 cell-induced DMR signal of CHO-ICAM1 cells. FIG. 4 illustrate the modulation profile (response v. modulator concentration in microM) of the natural killer cell-induced DMR signal of the target cell layer by four different modulators at different doses:
Cell culture—Natural killer cells-NK92MI, both parental CHO-K1 and engineered CHO expressing ICAM1 receptor (CHO-ICAM1) were purchased from American Type Culture Collection (Manassas, Va.). NK92MI cells were grown in RPMI medium plus 12.5% horse serum and 12.5 fetal bovine serum (FBS) and antibiotics. CHO-K1 cells and CHO-ICAM1 cells were grown in RPMI supplemented with 10% fetal bovine serum (FBS) and antibiotics. Approximately 1-2×10^4 target cells of CHO-K1 or CHO-ICAM1 in 50 μl medium were placed in each well of Epic® 384-well microplate. After cell seeding, the cells were cultured at 37° C. under air/5% CO2 until a high degree, e.g. 90%, of confluence was reached (e.g., about 24 hrs). Cells were continuously cultured for over night with their corresponding media without any serum to keep cells at a quiescent state and cell confluence was over 95%.
Epic® system and DMR assays—An Epic® beta system was used during this study. For cell-cell interaction study, target cell density was at 95-100% confluence and the cells were finally maintained with the appropriate medium as described above. Cell number of NK92MI was counted with Beckman Coulter Particle Counter (Beckman Coulter, Fullerton, Calif.). Unless stated otherwise, a ratio of 1 between killer cells and target cells was used. NK92MI cells were suspended in RPMI plus 2% FBS. A 20-microliter solution of NK92MI was aliquoted to each well of a normal 384-well microplate (Corning Inc., Corning, N.Y.). The plates of the target-cell and the natural killer cell were incubated in the Epic® instrument for at least 30 minutes to reach 28° C. For pharmacological agent studies, the Icam1 cells had been pretreated with the agents for 1 hour before the NK cells were introduced. All studies were carried out at 28° C. with the lid of the microplate on except for a short period of time (e.g., about several seconds) when the solution was introduced, in order to minimize the effect of temperature fluctuation and evaporative cooling.

RhoA, sequence (P61586 whole entry, species assumed): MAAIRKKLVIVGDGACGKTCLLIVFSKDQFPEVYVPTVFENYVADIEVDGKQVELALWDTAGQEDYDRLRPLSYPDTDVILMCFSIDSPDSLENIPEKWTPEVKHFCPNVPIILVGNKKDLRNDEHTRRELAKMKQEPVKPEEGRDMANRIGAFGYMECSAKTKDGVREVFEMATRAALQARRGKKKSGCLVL

| Structure (SMILES) | effect on RhoA activation (RhoA) | effect on NK92-induced signals of D1 cells (D1 cells) | effect on NK92-induced N-DMR of CHO-ICAM1 cells (CHO-ICAM1 cells) |
| --- | --- | --- | --- |
| CCN(CC)CCCC(C)Nc1nc(C)cc(Nc2ccc3nc(C)cc(N)c3c2)n1 (racemic) [Rac1 inhibitor] | no effect | dose dependently increases | – |
| C[C@H]1CCC/C=C/[C@@H]2C[C@H](O)C[C@H]2[C@H](O)/C=C/C(=O)O1 [BFA, Brefeldin A] | – | dose dependently increases | dose dependently increases |
| N#CC(=C(/N)Sc1ccccc1N)/C(C#N)=C(\N)Sc1ccccc1N [U0126] | – | – | dose-dependently suppressed |
| CC[C@@]1(O)C(=O)OCc2c1cc1n(c2=O)Cc2cc3ccccc3nc2-1 [camptothecin, Camptothecin] | – | dose dependently increases | dose dependently increases |
| COC(=O)CC[C@H](NC(=O)[C@H](CC(=O)OC)NC(=O)OCc1ccccc1)C(=O)N[C@H](C(=O)N[C@@H](CC(=O)OC)C(=O)CF)C(C)C [caspase 3 inhibitor] | – | – | little effect |
| C/C1=C/C(=O)O[C@@H]2C[C@@H](CC[C@H](C)/C=C\C=C\CC1)O[C@@](O)([C@@H]1CSC(=O)N1)C2 [latrunculin A] | – | dose dependently increases | – |
| CC[C@]1(O)C[C@@H]2CN(CCc3c([nH]c4ccccc34)[C@@](C(=O)OC)(c3cc4c(cc3OC)N(C)[C@H]3[C@@](O)(C(=O)OC)[C@H](OC(C)=O)[C@]5(CC)C=CCN6CC[C@]43[C@@H]65)C2)C1 [vinblastine, Vinblastine] | – | – | dose dependently increases |

Source: patent US20090181409A1, “Optical biosensor method for cell-cell interaction” (priority 2008, published 2009)
